The subject of one test is SK-MEL3. The test can be described thus: Antiproliferative activity against human SK-MEL3 cells assessed as cell growth inhibition after 72 hrs by Cell titer glo assay. The test is classed as functional, cell-based. The conditions noted are these: SK-MEL3, 72 h. On the technique in general: ATP-based viability assays read luminescence as a measure of living cells.
For test [1], the target named is cGMP-inhibited 3',5'-cyclic phosphodiesterase 3B (Homo sapiens, UniProt Q13370). The test can be described thus: Inhibition of human full length PDE3B expressed in Sf9 cells measured after 60 mins by [3H]-cAMP Scintillation proximity assay. In general terms: Scintillation proximity formats need no separation of bound from free tracer.
Chain of cGMP-inhibited 3',5'-cyclic phosphodiesterase 3B (Q13370 whole entry): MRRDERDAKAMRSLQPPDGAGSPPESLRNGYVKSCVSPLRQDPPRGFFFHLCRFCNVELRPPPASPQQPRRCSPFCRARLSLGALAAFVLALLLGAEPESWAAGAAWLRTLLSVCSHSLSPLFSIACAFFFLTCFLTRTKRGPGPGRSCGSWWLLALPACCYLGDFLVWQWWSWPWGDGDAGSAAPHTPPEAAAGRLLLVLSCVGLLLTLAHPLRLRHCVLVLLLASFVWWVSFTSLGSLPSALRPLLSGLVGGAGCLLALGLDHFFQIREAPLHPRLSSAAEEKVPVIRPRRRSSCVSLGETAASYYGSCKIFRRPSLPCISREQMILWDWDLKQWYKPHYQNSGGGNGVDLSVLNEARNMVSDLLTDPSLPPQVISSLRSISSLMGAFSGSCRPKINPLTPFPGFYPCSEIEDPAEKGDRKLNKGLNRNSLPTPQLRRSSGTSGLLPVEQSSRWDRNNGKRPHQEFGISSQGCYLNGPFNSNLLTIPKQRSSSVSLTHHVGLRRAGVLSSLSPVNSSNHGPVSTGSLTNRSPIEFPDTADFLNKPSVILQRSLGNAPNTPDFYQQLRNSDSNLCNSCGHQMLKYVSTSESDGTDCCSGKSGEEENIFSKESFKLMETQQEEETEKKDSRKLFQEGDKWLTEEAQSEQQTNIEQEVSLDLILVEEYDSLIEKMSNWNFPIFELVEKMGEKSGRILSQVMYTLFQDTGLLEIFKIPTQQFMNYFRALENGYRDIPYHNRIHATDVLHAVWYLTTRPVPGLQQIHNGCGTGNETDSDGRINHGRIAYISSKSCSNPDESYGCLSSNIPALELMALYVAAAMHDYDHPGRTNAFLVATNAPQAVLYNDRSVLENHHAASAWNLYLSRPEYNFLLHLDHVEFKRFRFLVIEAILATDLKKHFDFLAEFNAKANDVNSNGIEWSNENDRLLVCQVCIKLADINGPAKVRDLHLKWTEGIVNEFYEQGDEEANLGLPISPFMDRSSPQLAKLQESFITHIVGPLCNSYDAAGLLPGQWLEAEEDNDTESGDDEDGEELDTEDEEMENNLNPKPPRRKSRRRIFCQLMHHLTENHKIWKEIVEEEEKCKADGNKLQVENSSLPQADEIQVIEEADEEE
A further test deals with IGR-37 cell line. Nature of the test: Antiproliferative activity against human IGR37 cells assessed as cell growth inhibition after 72 hrs by Cell titer glo assay. Particulars: IGR-37, 72 h. The test is classed as functional, cell-based.
In test [2] the target is cGMP-inhibited 3',5'-cyclic phosphodiesterase 3A (Homo sapiens, UniProt Q14432). Nature of the test: Inhibition of human full length PDE3A expressed in Sf9 cells measured after 60 mins by [3H]-cAMP Scintillation proximity assay.
Chain of cGMP-inhibited 3',5'-cyclic phosphodiesterase 3A (Q14432 whole entry): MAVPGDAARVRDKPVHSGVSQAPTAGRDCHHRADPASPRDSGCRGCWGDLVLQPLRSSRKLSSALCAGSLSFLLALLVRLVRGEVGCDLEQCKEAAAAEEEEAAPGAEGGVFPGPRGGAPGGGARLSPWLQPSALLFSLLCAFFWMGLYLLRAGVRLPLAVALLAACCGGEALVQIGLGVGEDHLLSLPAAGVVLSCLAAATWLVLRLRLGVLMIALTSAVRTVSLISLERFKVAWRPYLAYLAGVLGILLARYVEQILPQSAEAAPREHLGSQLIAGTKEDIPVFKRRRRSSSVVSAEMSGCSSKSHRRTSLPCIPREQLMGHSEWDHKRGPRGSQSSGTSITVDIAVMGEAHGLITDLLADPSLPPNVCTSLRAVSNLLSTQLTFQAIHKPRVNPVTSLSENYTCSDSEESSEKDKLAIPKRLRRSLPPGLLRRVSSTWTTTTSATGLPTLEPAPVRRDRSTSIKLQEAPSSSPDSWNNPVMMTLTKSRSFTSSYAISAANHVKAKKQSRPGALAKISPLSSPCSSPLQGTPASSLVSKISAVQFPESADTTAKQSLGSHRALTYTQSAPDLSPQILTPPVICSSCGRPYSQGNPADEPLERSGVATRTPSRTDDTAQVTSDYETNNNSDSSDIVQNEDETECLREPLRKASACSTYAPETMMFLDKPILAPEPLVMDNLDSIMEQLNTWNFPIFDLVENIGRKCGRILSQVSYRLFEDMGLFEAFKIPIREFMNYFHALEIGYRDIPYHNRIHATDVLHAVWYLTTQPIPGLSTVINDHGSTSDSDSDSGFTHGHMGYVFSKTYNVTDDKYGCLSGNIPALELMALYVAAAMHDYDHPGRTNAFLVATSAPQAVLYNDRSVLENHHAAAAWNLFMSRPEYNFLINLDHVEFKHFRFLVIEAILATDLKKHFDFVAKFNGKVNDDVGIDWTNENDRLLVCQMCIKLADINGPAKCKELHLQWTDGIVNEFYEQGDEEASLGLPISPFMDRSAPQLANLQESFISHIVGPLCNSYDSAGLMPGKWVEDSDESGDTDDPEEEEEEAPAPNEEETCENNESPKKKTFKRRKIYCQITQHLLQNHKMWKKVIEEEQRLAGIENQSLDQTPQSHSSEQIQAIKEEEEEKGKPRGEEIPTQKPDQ
Another test concerns HeLa. Nature of the test: Antiproliferative activity against human HeLa cells assessed as cell growth inhibition after 72 hrs by Cell titer glo assay. The test is classed as functional, cell-based.

As to `C[C@@H]1OC(=O)NN=C1c1ccc(OC[C@@H](C)F)c(C(F)(F)F)c1`, the IC50 (as a rule, the point on the concentration scale where inhibition reaches its midpoint) came to 0.5 nM in the test on SK-MEL3; 9 nM in test [1]; 0.3 nM in the test with IGR-37 cell line; 9 nM in test [2]; 0.2 nM with HeLa.
On to `CCCCOc1ccc(C2=NNC(=O)O[C@H]2C)cc1C(F)(F)F`, for which the concentration for half-maximal inhibition (IC50) came to 0.6 nM in the test with SK-MEL3, 0.5 nM with IGR-37 cell line and 0.2 nM in the test on HeLa.
As to `CCOc1ccc(C2=NNC(=O)O[C@H]2C)cc1C(F)(F)F`, the half-maximal inhibitory concentration (IC50) with SK-MEL3 is 0.6 nM; in test [1] it was 7 nM; with IGR-37 cell line, 0.5 nM; in test [2], 6 nM; in the test on HeLa, 0.3 nM.
With `C[C@@H]1OC(=O)NN=C1c1ccc(OCCC(F)(F)F)c(C(F)(F)F)c1`, the IC50 was determined as 0.3 nM in the test on SK-MEL3; 5 nM in test [1]; 0.3 nM in the test on IGR-37 cell line; 7 nM in test [2]; 0.1 nM with HeLa.
Turning to `CCCOc1ccc(C2=NNC(=O)O[C@H]2C)cc1C(F)(F)F`, the 50% inhibitory concentration (IC50) with SK-MEL3 is 0.3 nM; in test [1], 5 nM; with IGR-37 cell line, 0.3 nM; in test [2] it was 8 nM; with HeLa it was 0.1 nM.
Turning to `COCCOc1ccc(C2=NNC(=O)O[C@H]2C)cc1C(F)(F)F`, the half-inhibitory concentration (IC50) in the test with SK-MEL3 was 0.3 nM; with IGR-37 cell line, 0.2 nM; in the test with HeLa, 0.1 nM.

These data come from ChEMBL document CHEMBL4825718, “Novel Dihydrooxadiazinones as PDE3 Inhibitors for Treating Cancer” (ACS Med Chem Lett, 2021).
